Laboratory results from US20020162794A1, “Anaerobic digestion” (priority 2001, published 2002).
Several values for one entry are separate records, joined by “and”; a condition that tells them apart may be missing. Equal entries are not always repeated.

Assays:
[1] = tested on: mixed culture from municipal sludge digester; test: Total Volatile Solids (TVS) of batch anaerobic digester reactors
Protocol: After the above TS measurements were completed, the pans together with dried samples are put into furnace at 550° C. for about two hours. The weight of the pans are then noted (say W3). The difference […] then gives the weight of volatile solids in the 30 ml sample. Again this Total Volatile Solids concentration is manipulated to units of g/liter. TVS determination represents the concentration of the organic substrate in the test sample.
(§1) Municipal sludge from the city of Lubbock, Wastewater Treatment Plant was digested in 12 batch digesters. Using twelve batch reactors allowed the collection of control reactors data (i.e., no formate in the reactors) in triplicate, titration studies of increasing formate concentration, and duplicates/triplicates of varying formate concentration. Experiments were conducted in the laboratories of Texas Tech University.
(§2) The reactors were setup on Mar. […] The substrate taken was 2 parts of 50 g/liter sucrose solution mixed with 1 part of digested municipal sludge which acts as the seed material for incorporation of microbes into the reactors. The experiments were started with the following protocol. [drawing 1]

[2] = tested on: mixed culture from municipal sludge digester; test: Total Solids (TS) of batch anaerobic digester reactors
Protocol: A 30 ml samples is withdrawn from each of the 12 reactors into refractory pans after the weight of empty pans was recorded (say W1). […] The weight of pans with dried sample is then noted (say W2). The difference W2˜W1, gives the weight of solids in 30 ml sample. From this the total Solids concentration in units of g/liter is calculated. This TS parameter is indicative of concentration of total solids in the sample including organic substrate, inert organics and inorganics.
as §1, §2

cattle = details: added to organic roughage fed to cattle; cited from earlier work

For `O=C[O-].[Na+]` [sodium formate], the “Total Volatile Solids” value ([1]; 1000 ppm, day 2) was 33.4 g/L and 32.6 g/L and 26.7 g/L, the “Total Volatile Solids” value ([1]; 1000 ppm, day 7) was 30.6 g/L and 29.9 g/L and 29.3 g/L and the “Total Volatile Solids” value ([1]; 1000 ppm, day 16) was 16.4 g/L and 13.1 g/L and 18.1 g/L. The “Total Volatile Solids” value ([1]; 1000 ppm, day 24) was 14.4 g/L and 10.3 g/L and 15.2 g/L, the “Total Volatile Solids” value ([1]; 1000 ppm, day 55) was 12.9 g/L and 10.7 g/L and 14.2 g/L and the “Total Volatile Solids” value ([1]; 1000 ppm, with formate addition at t = 0) was 39.6 g/L and 38.8 g/L and 37.3 g/L. The “Total Volatile Solids” value ([1]; 5000 ppm, day 2) was 23.7 g/L, the “Total Volatile Solids” value ([1]; 5000 ppm, day 7) was 20.3 g/L and the “Total Volatile Solids” value ([1]; 5000 ppm, day 16) was 12.6 g/L. For the same molecule, the “Total Volatile Solids” value ([1]; 5000 ppm, day 24) was 11.7 g/L, the “Total Volatile Solids” value ([1]; 5000 ppm, day 55) was 14.7 g/L and the “Total Volatile Solids” value ([1]; 5000 ppm, with formate addition at t = 0) was 41.8 g/L. For the same molecule, the “Total Volatile Solids” value ([1]; 10000 ppm, day 2) was 25.5 g/L and 30.2 g/L and 29.8 g/L, the “Total Volatile Solids” value ([1]; 10000 ppm, day 7) was 19.2 g/L and 24 g/L and 24.1 g/L and the “Total Volatile Solids” value ([1]; 10000 ppm, day 16) was 17.1 g/L and 21.0 g/L and 15.0 g/L. The “Total Volatile Solids” value ([1]; 10000 ppm, day 24) was 16.4 g/L and 18.9 g/L and 15.2 g/L, the “Total Volatile Solids” value ([1]; 10000 ppm, day 55) was 19.8 g/L and 20.1 g/L and 18.5 g/L and the “Total Volatile Solids” value ([1]; 10000 ppm, with formate addition at t = 0) was 38.8 g/L and 46.9 g/L and 46.4 g/L. For the same molecule, the “Total Volatile Solids” value ([1]; 100000 ppm, day 2) was 68.5 g/L and 80.8 g/L, the “Total Volatile Solids” value ([1]; 100000 ppm, day 7) was 45.8 g/L and 52.7 g/L and the “Total Volatile Solids” value ([1]; 100000 ppm, day 16) was 44.7 g/L and 54.10 g/L. The “Total Volatile Solids” value ([1]; 100000 ppm, day 24) was 41.4 g/L and 51.6 g/L, the “Total Volatile Solids” value ([1]; 100000 ppm, day 55) was 45.5 g/L and 65.8 g/L and the “Total Volatile Solids” value ([1]; 100000 ppm, with formate addition at t = 0) was 126.6 g/L and 134.9 g/L. For the same molecule, the “Total Solids” value ([2]; 1000 ppm, day 2) was 37.6 g/L and 35.9 g/L, the “Total Solids” value ([2]; 1000 ppm, day 7) was 33.8 g/L and 32.5 g/L and 32.2 g/L and the “Total Solids” value ([2]; 1000 ppm, day 16) was 20.3 g/L and 15.8 g/L and 21.4 g/L. For the same molecule, the “Total Solids” value ([2]; 1000 ppm, day 55) was 15.6 g/L and 13.2 g/L and 17.3 g/L, the “Total Solids” value ([2]; 1000 ppm, day 243 (so in the source)) was 16.6 g/L and 13.0 g/L and 17.8 g/L and the “Total Solids” value ([2]; 1000 ppm, formate addition at t = 0) was 42.3 g/L and 41.8 g/L and 40.8 g/L. The “Total Solids” value ([2]; 5000 ppm, day 2) was 35.5 g/L, the “Total Solids” value ([2]; 5000 ppm, day 7) was 34.6 g/L and the “Total Solids” value ([2]; 5000 ppm, day 16) was 20.7 g/L. For the same molecule, the “Total Solids” value ([2]; 5000 ppm, day 55) was 23.2 g/L, the “Total Solids” value ([2]; 5000 ppm, day 243 (so in the source)) was 22.0 g/L and the “Total Solids” value ([2]; 5000 ppm, formate addition at t = 0) was 47.5 g/L. For the same molecule, the “Total Solids” value ([2]; 10000 ppm, day 2) was 44.5 g/L and 52.6 g/L and 48.3 g/L, the “Total Solids” value ([2]; 10000 ppm, day 7) was 36.3 g/L and 45.3 g/L and 43.5 g/L and the “Total Solids” value ([2]; 10000 ppm, day 16) was 34.6 g/L and 41.2 g/L and 31.2 g/L. For the same molecule, the “Total Solids” value ([2]; 10000 ppm, day 55) was 36.3 g/L and 36.8 g/L and 33.3 g/L, the “Total Solids” value ([2]; 10000 ppm, day 243 (so in the source)) was 33.4 g/L and 39.6 g/L and 30.7 g/L and the “Total Solids” value ([2]; 10000 ppm, formate addition at t = 0) was 55.1 g/L and 54.9 g/L and 53.4 g/L. For the same molecule, the “Total Solids” value ([2]; 100000 ppm, day 2) was 254 g/L and 289.6 g/L, the “Total Solids” value ([2]; 100000 ppm, day 7) was 91.5 g/L and 147.4 g/L and the “Total Solids” value ([2]; 100000 ppm, day 16) was 129 g/L and 151.1 g/L. For the same molecule, the “Total Solids” value ([2]; 100000 ppm, day 55) was 128 g/L and 160 g/L, the “Total Solids” value ([2]; 100000 ppm, day 243 (so in the source)) was 125 g/L and 147.8 g/L and the “Total Solids” value ([2]; 100000 ppm, formate addition at t = 0) was 180.4 g/L and 188 g/L. The “increase of digestibility of the feed” value (cattle) was 4-27%.
